Experimental data: patent US20210246019A1, “PEPTIDE/LIPID-ASSOCIATED NUCLEIC ACIDS (PLANA) FOR NUCLEIC ACID DELIVERY” (priority 2020, published 2021)

Test system: hCoV-229E
Experiment: microbe, parasite or virus in culture
Details: Human coronavirus 229E, MRC5, read-out: cell viability

SMILES: CCC(CC)COC(=O)[C@H](C)N[P@](=O)(OC[C@H]1O[C@@](C#N)(c2ccc3c(N)ncnn23)[C@H](O)[C@@H]1O)Oc1ccccc1 [remdesivir]
- viability at 5 µM: 92%
